In ChEMBL document CHEMBL1201862, “PubChem BioAssay data set” (2004):
Active and inactive are the calls of the source.

Tests used:
[1] = molecular target: Ras and Rab interactor 1/Tyrosine-protein kinase ABL1 (Homo sapiens, UniProt P00519+Q13671); assay type: functional;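 also: biochemical TR-FRET dose-response test measuring inhibition of binding between Rin1 and Abl proteins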
[2] = molecular target: T1, Mitochondrial peptide methionine sulfoxide reductase (Bos taurus, UniProt P54149); assay: Absorbance-based biochemical high throughput dose response assay for activators of Methionine sulfoxide reductase A (MsrA).; assay type: functional
T1 sequence (P54149 whole entry): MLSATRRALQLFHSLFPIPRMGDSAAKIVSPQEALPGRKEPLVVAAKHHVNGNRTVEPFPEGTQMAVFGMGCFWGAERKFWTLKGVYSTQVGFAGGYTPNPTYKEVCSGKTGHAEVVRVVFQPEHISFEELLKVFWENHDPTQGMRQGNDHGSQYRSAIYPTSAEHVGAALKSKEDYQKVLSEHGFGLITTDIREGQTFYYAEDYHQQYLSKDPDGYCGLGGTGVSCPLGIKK

[3] = molecular target: Large T antigen (Simian virus 40, UniProt P03070); assay type: functional, Betapolyomavirus macacae;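 also: Confirmatory-stage PubChem screen for compounds that inhibit SV40 T antigen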
Large T antigen, sequence (P03070 whole entry): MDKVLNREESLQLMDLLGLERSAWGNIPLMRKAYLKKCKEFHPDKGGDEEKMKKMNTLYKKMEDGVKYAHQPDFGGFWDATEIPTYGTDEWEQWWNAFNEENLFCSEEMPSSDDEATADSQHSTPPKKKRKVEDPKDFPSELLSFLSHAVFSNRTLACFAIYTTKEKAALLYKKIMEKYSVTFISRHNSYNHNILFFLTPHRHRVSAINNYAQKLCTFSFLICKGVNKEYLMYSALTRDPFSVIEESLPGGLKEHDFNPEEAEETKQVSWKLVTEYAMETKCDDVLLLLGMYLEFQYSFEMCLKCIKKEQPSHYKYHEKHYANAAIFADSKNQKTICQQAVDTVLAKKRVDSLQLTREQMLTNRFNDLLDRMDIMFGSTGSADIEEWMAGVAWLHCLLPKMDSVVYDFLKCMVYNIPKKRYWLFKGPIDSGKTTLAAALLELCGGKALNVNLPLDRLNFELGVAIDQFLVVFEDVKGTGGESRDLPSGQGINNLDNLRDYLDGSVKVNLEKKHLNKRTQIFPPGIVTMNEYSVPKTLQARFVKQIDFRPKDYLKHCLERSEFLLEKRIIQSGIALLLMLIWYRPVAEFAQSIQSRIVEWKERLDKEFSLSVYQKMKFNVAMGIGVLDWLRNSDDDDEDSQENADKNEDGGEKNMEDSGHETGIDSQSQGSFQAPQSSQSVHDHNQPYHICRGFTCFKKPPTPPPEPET

[4] = molecular target: T2, Orexin receptor type 2 (Homo sapiens, UniProt O43614); assay: Counterscreen assay for antagonists of the orexin 1 receptor (OX1R; HCRTR1): Homogeneous Time Resolved Fluorescence (HTRF)-based cell-based dose response assay for antagonists of the orexin 2 receptor (OX2R; HCRTR2), run by assay provider.; assay type: functional
T2 sequence (O43614 whole entry): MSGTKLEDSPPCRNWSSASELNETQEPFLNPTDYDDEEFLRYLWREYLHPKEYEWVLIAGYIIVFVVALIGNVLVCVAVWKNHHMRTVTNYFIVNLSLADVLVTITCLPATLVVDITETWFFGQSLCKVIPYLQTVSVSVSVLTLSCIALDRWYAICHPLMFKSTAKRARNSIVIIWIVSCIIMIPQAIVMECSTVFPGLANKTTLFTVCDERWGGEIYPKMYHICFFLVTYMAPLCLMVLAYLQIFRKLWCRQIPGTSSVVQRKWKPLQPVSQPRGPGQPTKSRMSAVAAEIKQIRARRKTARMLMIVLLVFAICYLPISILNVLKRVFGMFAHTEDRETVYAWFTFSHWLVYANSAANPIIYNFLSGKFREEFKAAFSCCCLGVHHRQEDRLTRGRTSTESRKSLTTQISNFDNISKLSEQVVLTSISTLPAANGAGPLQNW

[5] = molecular target: T3, Orexin/Hypocretin receptor type 1 (Homo sapiens, UniProt O43613); assay: Homogeneous Time Resolved Fluorescence (HTRF)-based cell-based high throughput dose response assay for antagonists of the orexin 1 receptor (OX1R; HCRTR1). [Related pubchem assays (depositor defined):AID434989, AID435008, AID463079, AID485270, AID492963, AID492964, AID492965, AID493232, AID504717, AID504718]; assay type: functional
T3 sequence (O43613 whole entry): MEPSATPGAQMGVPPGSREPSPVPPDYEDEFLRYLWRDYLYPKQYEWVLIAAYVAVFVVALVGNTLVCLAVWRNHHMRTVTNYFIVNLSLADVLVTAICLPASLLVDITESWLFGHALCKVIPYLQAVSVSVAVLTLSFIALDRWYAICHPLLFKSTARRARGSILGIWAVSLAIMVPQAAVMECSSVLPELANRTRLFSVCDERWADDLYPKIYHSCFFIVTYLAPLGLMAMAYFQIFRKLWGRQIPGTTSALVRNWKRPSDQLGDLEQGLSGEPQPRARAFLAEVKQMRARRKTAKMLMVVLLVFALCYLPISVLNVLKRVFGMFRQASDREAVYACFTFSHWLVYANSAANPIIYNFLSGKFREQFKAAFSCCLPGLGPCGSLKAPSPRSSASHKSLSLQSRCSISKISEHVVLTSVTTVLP

[6] = molecular target: T2, Orexin receptor type 2; assay: Counterscreen assay for antagonists of the orexin 1 receptor (OX1R; HCRTR1): Fluorescence-based cell-based dose response assay for antagonists of the orexin 2 receptor (OX2R; HCRTR2), run by assay provider.; assay type: functional
[7] = tested on: CHO-K1; assay: Counterscreen for antagonists of the orexin 1 receptor (OX1R; HCRTR1): Homogeneous time resolved fluorescence (HTRF)-based cell-based dose response assay to identify antagonists of the parental CHO-K1 cell line. [Related pubchem assays (depositor defined):AID434989, AID435008, AID463079, AID485270, AID492963, AID492964, AID492965, AID493232, AID504699, AID504701]; assay type: functional; details: Cricetulus griseus;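 also: potency for inhibition of ATP-stimulated IP1 production as antagonists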
[8] = molecular target: T3, Orexin/Hypocretin receptor type 1; assay: Fluorescence-based cell-based high throughput dose response assay for antagonists of the orexin 1 receptor (OX1R; HCRTR1). [Related pubchem assays (depositor defined):AID434989, AID435008, AID463079, AID485270, AID492963, AID492964, AID492965, AID493232, AID504717, AID504718]; assay type: functional
[9] = Counterscreen for antagonists of the orexin 1 receptor (OX1R; HCRTR1): Fluorescence-based cell-based high throughput dose response assay to identify antagonists of the parental CHO cell line. [Related pubchem assays (depositor defined):AID434989, AID435008, AID463079, AID485270, AID492963, AID492964, AID492965, AID493232, AID504699, AID504701]; assay type: functional
[10] = MC4R antagonists, dose response, counter-screen for LGR2 antagonist project, cell-based, plate reader, cherry pick (AID 743444); assay type: functional;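 also: transfected HEK 293 cells stimulated with alpha-MSH peptide; potency of inhibitors of the alpha-MSH evoked signal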
[11] = molecular target: Luciferin 4-monooxygenase (Photinus pyralis, UniProt P08659); assay: firefly luciferase enzyme inhibitors, dose response, biochemical, luminescence (AID 1891)
Luciferin 4-monooxygenase, sequence (P08659 whole entry): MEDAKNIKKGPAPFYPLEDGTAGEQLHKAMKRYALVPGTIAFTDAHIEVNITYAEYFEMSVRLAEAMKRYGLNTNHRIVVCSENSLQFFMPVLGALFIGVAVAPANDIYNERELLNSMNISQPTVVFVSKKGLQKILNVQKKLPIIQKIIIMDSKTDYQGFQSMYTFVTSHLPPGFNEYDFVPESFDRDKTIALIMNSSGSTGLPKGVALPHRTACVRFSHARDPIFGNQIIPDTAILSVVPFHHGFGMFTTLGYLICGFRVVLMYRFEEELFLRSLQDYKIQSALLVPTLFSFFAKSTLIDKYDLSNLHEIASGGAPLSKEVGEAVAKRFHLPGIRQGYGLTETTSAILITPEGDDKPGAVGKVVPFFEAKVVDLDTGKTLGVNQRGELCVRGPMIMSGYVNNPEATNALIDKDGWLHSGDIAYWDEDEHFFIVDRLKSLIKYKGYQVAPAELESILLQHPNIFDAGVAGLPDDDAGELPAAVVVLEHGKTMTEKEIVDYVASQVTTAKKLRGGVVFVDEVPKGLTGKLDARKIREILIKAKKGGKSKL

[12] = Luminescence Cell-Based Dose Confirmation HTS to Identify Inhibitors of Platelet Dense Granule Release. [Related pubchem assays: 1663 (Primary HTS), 1678 (Summary of Project)]; assay type: functional
[13] = tested on: HEK293; assay: inhibitors of LMP1-driven NF-kB reporter, dose response, cell-based, HEK293, luciferase, cherry-pick (AID 588343); assay type: functional; details: Homo sapiens
[14] = A549 cell cytotoxicity, dose response, cytotoxicity control, plate reader, cherry-pick, antagonist series (AID 743412); assay type: functional, cell-based
[15] = HepG2 cell cytotoxicity, dose response, cytotoxicity control, plate reader, cherry-pick, antagonist series (AID 743416); assay type: functional, cell-based
[16] = HEK293 cell cytotoxicity, dose response, cytotoxicity control, plate reader, cherry-picked samples (AID 743446); assay type: functional, cell-based
[17] = LGR2 antagonists, dose response, cell-based, HEK293, CRE-luciferase reporter, cherry pick, set 2 (AID 743343); assay type: functional;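 also: transfected cells were stimulated with diluted bursicon conditioned medium after compound addition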
[18] = ARNT/TACC3 interaction disruptors, potency, confirmation, biochemical, AlphaScreen, cherry-picked samples (AID 651703); assay type: functional, Homo sapiens;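 also: His-tagged ARNT PAS-B domain paired with GST-TACC3 E629A dimer coactivator fragment; potency of inhibitors that break up the complex and lower AlphaScreen signal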
[19] = molecular target: Cytochrome P450 2C19 (Homo sapiens, UniProt P33261); assay: Cytochrome panel assay with activity outcomes. Panel member name: p450-cyp2c19 Compounds with AC50 equal or less than 10 uM are considered active; assay type: functional; details: read-out: AC50
Cytochrome P450 2C19, sequence (P33261 whole entry): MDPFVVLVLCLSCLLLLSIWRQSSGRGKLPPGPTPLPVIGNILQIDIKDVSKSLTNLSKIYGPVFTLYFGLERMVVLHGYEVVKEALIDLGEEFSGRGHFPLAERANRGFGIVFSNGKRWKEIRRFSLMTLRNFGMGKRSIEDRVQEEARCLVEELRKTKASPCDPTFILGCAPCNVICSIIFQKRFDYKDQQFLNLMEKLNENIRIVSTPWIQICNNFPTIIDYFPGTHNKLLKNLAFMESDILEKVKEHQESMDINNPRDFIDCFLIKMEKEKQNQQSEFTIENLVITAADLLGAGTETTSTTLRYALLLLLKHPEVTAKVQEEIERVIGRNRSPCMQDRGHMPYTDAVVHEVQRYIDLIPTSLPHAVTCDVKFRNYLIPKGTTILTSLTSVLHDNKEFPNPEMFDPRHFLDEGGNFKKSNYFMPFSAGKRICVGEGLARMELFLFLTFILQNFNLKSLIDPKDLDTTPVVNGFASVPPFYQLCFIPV

[20] = molecular target: Cytochrome P450 2C9 (Homo sapiens, UniProt P11712)
Cytochrome P450 2C9, sequence (P11712 whole entry): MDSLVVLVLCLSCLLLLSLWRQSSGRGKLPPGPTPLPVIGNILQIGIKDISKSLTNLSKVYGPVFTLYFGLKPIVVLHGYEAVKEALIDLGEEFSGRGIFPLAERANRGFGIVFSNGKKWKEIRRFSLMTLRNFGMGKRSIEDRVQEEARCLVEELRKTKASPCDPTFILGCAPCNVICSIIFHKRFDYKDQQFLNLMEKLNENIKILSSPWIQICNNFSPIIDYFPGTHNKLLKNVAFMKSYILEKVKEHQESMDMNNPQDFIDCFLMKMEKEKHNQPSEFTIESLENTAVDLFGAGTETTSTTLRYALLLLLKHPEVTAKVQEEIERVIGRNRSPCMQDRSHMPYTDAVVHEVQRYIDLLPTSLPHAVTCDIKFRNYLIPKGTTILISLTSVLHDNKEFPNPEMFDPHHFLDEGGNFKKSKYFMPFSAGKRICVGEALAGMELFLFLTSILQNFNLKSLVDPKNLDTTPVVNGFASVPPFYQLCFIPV

[21] = Luminescence Cell-Based Dose Response HTS to Identify Inhibitors of 5'UTR Stem-Loop Driven Prion Protein mRNA Translation in H4 Neuroglioblastoma Cells. [Related pubchem assays: 1827 (Project Summary), 1813 (Primary HTS)]; assay type: functional
[22] = inhibitors of SNCA 5'UTR-driven reporter translation, confirmation, H4 neuroglioma cells, luminescence (AID 1988); assay type: functional, cell-based
[23] = miR-122 activators in hepatoma reporter cells, dose response, cell-based, Huh7 psiCHECK-miR122, Renilla luciferase, cherry-picked (AID 651956); assay type: functional;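 also: huh7 hepatoma cells stably carrying a psiCHECK-2 miR-122 sensor plasmid; renilla luciferase signal reporting endogenous miR-122 activity after 48 h compound exposure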
[24] = inhibitors of firefly luciferase expression or activity, dose response, H4 neuroglioma cells, luminescence (AID 1990); assay type: functional, cell-based
[25] = molecular target: Beta-galactosidase (Escherichia coli, UniProt Q8VNN2); assay: PubChem AID 485352; assay type: functional
[26] = molecular target: T4, Type-1 angiotensin II receptor (Homo sapiens, UniProt P30556); assay: AT1 receptor antagonists, dose response, selectivity assay for APJ receptor antagonist project, cell-based, uHTS hits (AID 463214); assay type: functional;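 also: antagonist potency against angiotensin II stimulated AT1 response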
T4 sequence (P30556 whole entry): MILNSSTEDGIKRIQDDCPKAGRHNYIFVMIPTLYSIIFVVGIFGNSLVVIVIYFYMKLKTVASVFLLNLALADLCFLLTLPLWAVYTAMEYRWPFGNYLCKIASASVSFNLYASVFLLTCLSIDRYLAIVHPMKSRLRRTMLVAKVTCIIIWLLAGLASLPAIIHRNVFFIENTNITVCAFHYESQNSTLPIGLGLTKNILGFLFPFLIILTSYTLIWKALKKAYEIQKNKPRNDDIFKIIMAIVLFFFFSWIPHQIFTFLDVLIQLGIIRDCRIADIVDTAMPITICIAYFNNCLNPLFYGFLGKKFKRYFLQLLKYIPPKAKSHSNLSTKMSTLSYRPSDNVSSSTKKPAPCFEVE

[27] = molecular target: T5, Apoptotic protease-activating factor 1 (Homo sapiens, UniProt O14727); assay: SAR analysis of small molecule Activators of Apaf-1 in a Fluorescent assay.; assay type: functional; details: read-out: EC50_Mean;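 also: caspase-3 cleavage of fluorogenic Rh110 DEVD substrate downstream of apoptosome activation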
T5 sequence (O14727 whole entry): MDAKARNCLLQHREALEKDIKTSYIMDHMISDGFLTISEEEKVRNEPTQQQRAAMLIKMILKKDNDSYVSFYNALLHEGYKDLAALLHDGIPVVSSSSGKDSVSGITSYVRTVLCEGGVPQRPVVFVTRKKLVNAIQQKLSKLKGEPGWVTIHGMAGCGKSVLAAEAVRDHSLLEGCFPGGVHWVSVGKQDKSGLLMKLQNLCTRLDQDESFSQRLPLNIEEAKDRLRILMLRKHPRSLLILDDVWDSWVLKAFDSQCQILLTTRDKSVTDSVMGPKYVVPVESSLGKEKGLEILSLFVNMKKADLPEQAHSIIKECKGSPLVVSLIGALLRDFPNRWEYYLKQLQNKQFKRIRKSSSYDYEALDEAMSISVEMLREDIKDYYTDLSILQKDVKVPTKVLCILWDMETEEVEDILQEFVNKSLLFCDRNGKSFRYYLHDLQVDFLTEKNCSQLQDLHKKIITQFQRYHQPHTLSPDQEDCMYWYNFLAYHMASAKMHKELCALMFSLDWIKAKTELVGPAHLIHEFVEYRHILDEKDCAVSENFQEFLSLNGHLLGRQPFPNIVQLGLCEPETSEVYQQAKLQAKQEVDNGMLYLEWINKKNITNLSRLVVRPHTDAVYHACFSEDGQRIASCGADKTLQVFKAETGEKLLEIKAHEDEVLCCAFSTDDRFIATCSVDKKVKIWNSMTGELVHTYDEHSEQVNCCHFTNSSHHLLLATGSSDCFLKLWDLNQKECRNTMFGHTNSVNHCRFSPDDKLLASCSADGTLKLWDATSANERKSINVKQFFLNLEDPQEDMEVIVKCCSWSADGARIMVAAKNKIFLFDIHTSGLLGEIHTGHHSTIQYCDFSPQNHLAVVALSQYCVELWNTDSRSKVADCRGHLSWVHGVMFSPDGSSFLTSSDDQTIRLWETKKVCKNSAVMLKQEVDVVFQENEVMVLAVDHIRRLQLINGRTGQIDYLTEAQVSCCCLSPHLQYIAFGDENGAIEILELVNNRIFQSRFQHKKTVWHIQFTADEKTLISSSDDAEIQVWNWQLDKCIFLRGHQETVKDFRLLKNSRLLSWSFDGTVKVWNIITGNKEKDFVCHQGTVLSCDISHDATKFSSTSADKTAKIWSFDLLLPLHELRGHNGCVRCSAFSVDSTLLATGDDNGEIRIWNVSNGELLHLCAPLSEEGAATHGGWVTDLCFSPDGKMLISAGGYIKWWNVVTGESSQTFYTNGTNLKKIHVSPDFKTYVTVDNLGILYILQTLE

Ras and Rab interactor 1/Tyrosine-protein kinase ABL1, sequence (P00519 whole entry): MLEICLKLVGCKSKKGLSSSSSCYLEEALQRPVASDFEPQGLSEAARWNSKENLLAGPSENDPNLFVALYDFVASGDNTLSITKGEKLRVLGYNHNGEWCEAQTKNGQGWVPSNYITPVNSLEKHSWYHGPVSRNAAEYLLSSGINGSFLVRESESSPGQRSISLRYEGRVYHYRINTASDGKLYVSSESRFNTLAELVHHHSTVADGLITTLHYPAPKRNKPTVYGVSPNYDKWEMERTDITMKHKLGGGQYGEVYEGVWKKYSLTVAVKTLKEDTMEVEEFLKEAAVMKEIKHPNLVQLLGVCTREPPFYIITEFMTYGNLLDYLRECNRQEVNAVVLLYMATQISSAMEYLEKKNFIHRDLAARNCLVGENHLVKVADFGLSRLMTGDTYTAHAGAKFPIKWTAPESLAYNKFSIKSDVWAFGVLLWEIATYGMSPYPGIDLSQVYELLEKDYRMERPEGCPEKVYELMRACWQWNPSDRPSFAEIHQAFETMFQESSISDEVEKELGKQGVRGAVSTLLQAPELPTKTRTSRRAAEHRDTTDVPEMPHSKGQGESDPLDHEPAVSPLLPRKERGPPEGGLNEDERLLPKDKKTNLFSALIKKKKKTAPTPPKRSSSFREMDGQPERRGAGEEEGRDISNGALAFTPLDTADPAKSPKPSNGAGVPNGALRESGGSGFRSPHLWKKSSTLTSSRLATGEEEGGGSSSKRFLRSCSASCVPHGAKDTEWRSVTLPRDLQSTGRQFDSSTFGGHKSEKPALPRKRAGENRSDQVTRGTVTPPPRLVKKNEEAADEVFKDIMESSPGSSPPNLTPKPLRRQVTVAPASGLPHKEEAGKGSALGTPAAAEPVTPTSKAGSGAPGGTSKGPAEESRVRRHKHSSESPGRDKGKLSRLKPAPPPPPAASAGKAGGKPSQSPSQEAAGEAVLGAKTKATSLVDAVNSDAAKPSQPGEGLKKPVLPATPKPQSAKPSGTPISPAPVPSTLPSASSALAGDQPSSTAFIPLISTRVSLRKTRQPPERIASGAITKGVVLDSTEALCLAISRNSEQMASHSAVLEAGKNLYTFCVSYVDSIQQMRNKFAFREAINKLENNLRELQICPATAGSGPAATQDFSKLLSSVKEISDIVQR
Ras and Rab interactor 1/Tyrosine-protein kinase ABL1, sequence (Q13671 whole entry): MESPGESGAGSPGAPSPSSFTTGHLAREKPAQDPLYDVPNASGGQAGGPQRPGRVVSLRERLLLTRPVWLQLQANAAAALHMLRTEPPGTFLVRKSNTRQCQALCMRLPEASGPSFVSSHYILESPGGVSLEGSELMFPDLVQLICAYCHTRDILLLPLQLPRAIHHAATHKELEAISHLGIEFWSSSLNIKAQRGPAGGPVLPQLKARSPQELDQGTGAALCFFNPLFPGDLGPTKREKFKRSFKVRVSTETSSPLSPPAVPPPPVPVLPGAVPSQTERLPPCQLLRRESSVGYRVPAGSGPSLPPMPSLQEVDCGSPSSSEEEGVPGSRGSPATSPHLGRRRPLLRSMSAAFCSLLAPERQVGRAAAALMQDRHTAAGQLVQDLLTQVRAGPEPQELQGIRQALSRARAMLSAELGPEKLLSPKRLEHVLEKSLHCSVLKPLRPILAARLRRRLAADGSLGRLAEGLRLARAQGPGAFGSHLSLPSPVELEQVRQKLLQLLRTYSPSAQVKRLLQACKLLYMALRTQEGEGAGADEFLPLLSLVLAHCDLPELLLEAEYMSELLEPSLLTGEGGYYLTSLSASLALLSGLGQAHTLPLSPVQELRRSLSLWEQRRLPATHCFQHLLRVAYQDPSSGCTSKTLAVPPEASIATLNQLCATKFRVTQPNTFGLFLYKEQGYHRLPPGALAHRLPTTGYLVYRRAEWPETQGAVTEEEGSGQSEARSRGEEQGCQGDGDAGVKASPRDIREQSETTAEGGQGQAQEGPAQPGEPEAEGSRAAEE

CC(C)n1cc(CN2CCC(C(=O)Nc3cccc(-c4cscn4)c3)CC2)cn1
IC50 [1]: 54.5 µM (inactive)

COCCCn1c(=O)c2ccccc2n2c(S)nnc12
EC50 [2]: > 104 µM (inactive) | IC50 [3]: 9.15 µM (active)

CN(C)/C=C1/Oc2c(ccc3ccccc23)C1=O
IC50 [4]: 18.3 µM (inactive) | IC50 [5]: 2.06 µM (active) | IC50 [6]: > 88.8 µM (inactive) | IC50 [7]: > 66.2 µM (inactive) | IC50 [8]: 33.3 µM (inactive) | IC50 [9]: > 49.7 µM (inactive)

Cc1ccc2[nH]c(-c3ccccn3)nc2c1
AC50 [10]: 6.67 µM (active) | EC50 [11]: 2.78 µM (active) | EC50 [12]: 14.7 µM (active) | AC50 [13]: 3.34 µM (active) | AC50 [14]: 27.3 µM (active) | AC50 [15]: 34.3 µM (active) | AC50 [16]: > 52 µM (inactive) | AC50 [17]: 5.45 µM (active) | AC50 [18]: 76 µM (active)

CN(C)CCNc1ncnc2c1sc1nc(N3CCOCC3)c3c(c12)CC(C)(C)SC3
AC50 [19]: 31.6 µM (inconclusive) | AC50 [20]: 25.1 µM (inconclusive) | EC50 [21]: 23.9 µM (active) | IC50 [1]: 13.7 µM (inactive) | EC50 [22]: 8.17 µM (active) | AC50 [23]: 12.9 µM (active) | EC50 [24]: 8.43 µM (active)

CN(/N=C/c1cc([N+](=O)[O-])ccc1O)c1ccccc1
IC50 [4]: > 50 µM (inactive) | IC50 [5]: 2.39 µM (active) | IC50 [6]: > 88.8 µM (inactive) | IC50 [7]: > 66.2 µM (inactive) | EC50 [25]: > 40 µM (inactive) | IC50 [8]: 2.48 µM (active) | IC50 [26]: > 40 µM (not active) | IC50 [9]: > 49.7 µM (inactive)

O=C(O)c1coc(-c2ccc(Cl)cc2)n1
EC50 [27]: > 100 µM (inactive)

COC(=O)c1coc(-c2ccc(Cl)cc2)n1
EC50 [27]: > 100 µM (inactive)
